Four molecules from patent publication US11034650B2, “Compounds useful for treating a Mannheimia haemolytica or Histophilus somni infection” (Intervet Inc., priority 2016, dated 2021) can be followed below.

In brackets after ≈: the same amount, converted by molar mass. Where only a bound is given, the exact number is not on record here.

The first assay relates to Mannheimia haemolytica MH 12587 (1071, BRD field isolate, macrolide-resistance: erm+, E+). In words: MIC, broth-microdilution (CLSI VET01-A4), strain MH 12587. It is filed as cell-based. The following applies: Mannheimia haemolytica strain MH 12587, broth-microdilution; unit assumed. The method in brief:
(§1)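 Growth inhibition is scored visually on a doubling dilution series. The reported MIC corresponds to the lowest concentration free of turbidity, with results assessed under CLSI VET01-S3.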
For `C=CCNCc1ccc(C#Cc2ccc(C(=O)NC(C(=O)NO)C(C)(C)[N+](=O)[O-])cc2)cc1` (stereo not drawn) [Compound 280], the MIC MH 12587 turned out to be 3.1 µg/mL (≈ 6.88 µM).
Molecule `CC[C@H](C)[C@H](NC(=O)c1ccc(C#Cc2ccc(CNCc3ccccn3)cc2)cc1)C(=O)NO` [Compound 180] showed an MIC MH 12587 of 3.1 µg/mL (≈ 6.59 µM).
As for `CC(C)([C@H](NC(=O)c1ccc(C#Cc2ccc(CNCc3ccco3)nc2)cc1)C(=O)NO)S(C)(=O)=O` [Compound 354], the MIC MH 12587 amounted to 1.6 µg/mL (≈ 3.05 µM).
`CC(C)(O)[C@H](NC(=O)c1ccc(C#Cc2ccc(CN3CCCC3)cc2)cc1)C(=O)NO` [Compound 225] yielded an MIC MH 12587 of 12.5 µg/mL (≈ 28.7 µM).

The next assay concerns Mannheimia haemolytica MH 13065 (XB0446-6003.9, BRD field isolate). In words: MIC, broth-microdilution (CLSI VET01-A4), strain MH 13065. It is filed as cell-based. The following applies: Mannheimia haemolytica strain MH 13065, broth-microdilution; unit assumed. The method in brief: as §1
A general note: Dilution methods test growth across graded concentrations, often in twofold steps.
As for `C=CCNCc1ccc(C#Cc2ccc(C(=O)NC(C(=O)NO)C(C)(C)[N+](=O)[O-])cc2)cc1` (stereo not drawn) [Compound 280], the MIC MH 13065 came to 1.6 µg/mL (≈ 3.55 µM).
Still for that read-out and setting: for `CC[C@H](C)[C@H](NC(=O)c1ccc(C#Cc2ccc(CNCc3ccccn3)cc2)cc1)C(=O)NO` [Compound 180] the value was 1.6 µg/mL (≈ 3.4 µM).
The same measure, in the same setting: for `CC(C)([C@H](NC(=O)c1ccc(C#Cc2ccc(CNCc3ccco3)nc2)cc1)C(=O)NO)S(C)(=O)=O` [Compound 354] the value was 1.6 µg/mL (≈ 3.05 µM); for `CC(C)(O)[C@H](NC(=O)c1ccc(C#Cc2ccc(CN3CCCC3)cc2)cc1)C(=O)NO` [Compound 225], 12.5 µg/mL (≈ 28.7 µM).

A further assay concerns Mannheimia haemolytica MH 13093 (XB0472-6014.1, BRD field isolate). In words: MIC, broth-microdilution (CLSI VET01-A4), strain MH 13093. In kind it is cell-based. The following applies: Mannheimia haemolytica strain MH 13093, broth-microdilution; unit assumed. The method in brief: as §1
`C=CCNCc1ccc(C#Cc2ccc(C(=O)NC(C(=O)NO)C(C)(C)[N+](=O)[O-])cc2)cc1` (stereo not drawn) [Compound 280] displayed an MIC MH 13093 of 1.6 µg/mL (≈ 3.55 µM).
The molecule `CC[C@H](C)[C@H](NC(=O)c1ccc(C#Cc2ccc(CNCc3ccccn3)cc2)cc1)C(=O)NO` [Compound 180] gave an MIC MH 13093 of 1.6 µg/mL (≈ 3.4 µM).
Still for that read-out and setting: for `CC(C)([C@H](NC(=O)c1ccc(C#Cc2ccc(CNCc3ccco3)nc2)cc1)C(=O)NO)S(C)(=O)=O` [Compound 354] the value was 0.8 µg/mL (≈ 1.52 µM); for `CC(C)(O)[C@H](NC(=O)c1ccc(C#Cc2ccc(CN3CCCC3)cc2)cc1)C(=O)NO` [Compound 225], 12.5 µg/mL (≈ 28.7 µM).

The next assay relates to Pasteurella multocida PM 6267 (P 2225 (L386), reference strain, mouse infection strain). In words: MIC, broth-microdilution (CLSI VET01-A4), strain PM 6267. In kind it is cell-based. The note with it: Pasteurella multocida strain PM 6267, broth-microdilution; unit assumed. In a few lines: as §1
As for `C=CCNCc1ccc(C#Cc2ccc(C(=O)NC(C(=O)NO)C(C)(C)[N+](=O)[O-])cc2)cc1` (stereo not drawn) [Compound 280], the MIC PM 6267 was at most 0.1 µg/mL.
Take `CC[C@H](C)[C@H](NC(=O)c1ccc(C#Cc2ccc(CNCc3ccccn3)cc2)cc1)C(=O)NO` [Compound 180]: the MIC PM 6267 was found to be 0.4 µg/mL (≈ 0.85 µM).
On the same count and under the same terms, in the case of `CC(C)([C@H](NC(=O)c1ccc(C#Cc2ccc(CNCc3ccco3)nc2)cc1)C(=O)NO)S(C)(=O)=O` [Compound 354] it was 0.8 µg/mL (≈ 1.52 µM); in that of `CC(C)(O)[C@H](NC(=O)c1ccc(C#Cc2ccc(CN3CCCC3)cc2)cc1)C(=O)NO` [Compound 225], at most 0.1 µg/mL.

In a further assay the test system is Pasteurella multocida PM 6391 (ATCC 43137, reference strain). In words: MIC, broth-microdilution (CLSI VET01-A4), strain PM 6391. The following applies: Pasteurella multocida strain PM 6391, broth-microdilution; unit assumed. It is filed as cell-based. As for the experimental part:
For example, representative compounds were tested against ***, Mannheimia haemolytica and Pasteurella multocida, using the conventional broth-dilution assay.
The Minimum inhibitory concentrations (MIC) of compounds according to the invention for a number of veterinary bacterial pathogens were determined by the broth-microdilution method according to CLSI document VET01-A4.
Microdilution trays containing a doubling dilution series of the test compound were used for the tests. The MIC results were interpreted according to the CLSI documents VET01-S3. The lowest concentration of compound at which no visible growth (i.e. no turbidity) detected by the unaided eye was recorded as the MIC.
In turn, `C=CCNCc1ccc(C#Cc2ccc(C(=O)NC(C(=O)NO)C(C)(C)[N+](=O)[O-])cc2)cc1` (stereo not drawn) [Compound 280] returned an MIC PM 6391 of 0.4 µg/mL (≈ 0.888 µM).
`CC[C@H](C)[C@H](NC(=O)c1ccc(C#Cc2ccc(CNCc3ccccn3)cc2)cc1)C(=O)NO` [Compound 180] showed an MIC PM 6391 of 1.6 µg/mL (≈ 3.4 µM).
As to `CC(C)([C@H](NC(=O)c1ccc(C#Cc2ccc(CNCc3ccco3)nc2)cc1)C(=O)NO)S(C)(=O)=O` [Compound 354], the MIC PM 6391 was determined as 0.4 µg/mL (≈ 0.762 µM).
The same measure, in the same setting: in the case of `CC(C)(O)[C@H](NC(=O)c1ccc(C#Cc2ccc(CN3CCCC3)cc2)cc1)C(=O)NO` [Compound 225] it was 0.8 µg/mL (≈ 1.84 µM).

The subject of another assay is Pasteurella multocida PM 12080 (IV102277-0093, BRD field isolate). In words: MIC, broth-microdilution (CLSI VET01-A4), strain PM 12080. It is filed as cell-based. The following applies: Pasteurella multocida strain PM 12080, broth-microdilution; unit assumed. In a few lines: as §1
Consider `C=CCNCc1ccc(C#Cc2ccc(C(=O)NC(C(=O)NO)C(C)(C)[N+](=O)[O-])cc2)cc1` (stereo not drawn) [Compound 280], for which the MIC PM 12080 was 0.2 µg/mL (≈ 0.444 µM).
The same measure, in the same setting: for `CC[C@H](C)[C@H](NC(=O)c1ccc(C#Cc2ccc(CNCc3ccccn3)cc2)cc1)C(=O)NO` [Compound 180] the value was 0.8 µg/mL (≈ 1.7 µM); for `CC(C)([C@H](NC(=O)c1ccc(C#Cc2ccc(CNCc3ccco3)nc2)cc1)C(=O)NO)S(C)(=O)=O` [Compound 354], 0.2 µg/mL (≈ 0.381 µM); for `CC(C)(O)[C@H](NC(=O)c1ccc(C#Cc2ccc(CN3CCCC3)cc2)cc1)C(=O)NO` [Compound 225], 0.8 µg/mL (≈ 1.84 µM).

The next assay relates to Pasteurella multocida PM 10775 (080130003051, BRD field isolate). In words: MIC, broth-microdilution (CLSI VET01-A4), strain PM 10775. In kind it is cell-based. The following applies: Pasteurella multocida strain PM 10775, broth-microdilution; unit assumed. The method in brief:
as §1
In turn, `C=CCNCc1ccc(C#Cc2ccc(C(=O)NC(C(=O)NO)C(C)(C)[N+](=O)[O-])cc2)cc1` (stereo not drawn) [Compound 280] had an MIC PM 10775 of at most 0.1 µg/mL.
The same measure, in the same setting: for `CC[C@H](C)[C@H](NC(=O)c1ccc(C#Cc2ccc(CNCc3ccccn3)cc2)cc1)C(=O)NO` [Compound 180] the value was at most 0.1 µg/mL; for `CC(C)([C@H](NC(=O)c1ccc(C#Cc2ccc(CNCc3ccco3)nc2)cc1)C(=O)NO)S(C)(=O)=O` [Compound 354], at most 0.1 µg/mL.

In another assay the test system is Mannheimia haemolytica MH 10720 (154, BRD field isolate). In words: MIC, broth-microdilution (CLSI VET01-A4), strain MH 10720. It is filed as cell-based. The following applies: Mannheimia haemolytica strain MH 10720, broth-microdilution; unit assumed. The method in brief:
as §1
`C=CCNCc1ccc(C#Cc2ccc(C(=O)NC(C(=O)NO)C(C)(C)[N+](=O)[O-])cc2)cc1` (stereo not drawn) [Compound 280]: the MIC MH 10720 was at most 0.1 µg/mL.
The same measure, in the same setting: for `CC[C@H](C)[C@H](NC(=O)c1ccc(C#Cc2ccc(CNCc3ccccn3)cc2)cc1)C(=O)NO` [Compound 180] the value was 0.2 µg/mL (≈ 0.425 µM).
The molecule `CC(C)([C@H](NC(=O)c1ccc(C#Cc2ccc(CNCc3ccco3)nc2)cc1)C(=O)NO)S(C)(=O)=O` [Compound 354] yielded an MIC MH 10720 of 0.2 µg/mL (≈ 0.381 µM).
For `CC(C)(O)[C@H](NC(=O)c1ccc(C#Cc2ccc(CN3CCCC3)cc2)cc1)C(=O)NO` [Compound 225], the MIC MH 10720 turned out to be 1.6 µg/mL (≈ 3.67 µM).

The subject of another assay is Mannheimia haemolytica MH 6374 (ATCC 33396, reference strain). In words: MIC, broth-microdilution (CLSI VET01-A4), strain MH 6374. It is filed as cell-based. The following applies: Mannheimia haemolytica strain MH 6374, broth-microdilution; unit assumed. The method in brief:
as §1
The molecule `C=CCNCc1ccc(C#Cc2ccc(C(=O)NC(C(=O)NO)C(C)(C)[N+](=O)[O-])cc2)cc1` (stereo not drawn) [Compound 280] displayed an MIC MH 6374 of 0.8 µg/mL (≈ 1.78 µM).
Regarding `CC[C@H](C)[C@H](NC(=O)c1ccc(C#Cc2ccc(CNCc3ccccn3)cc2)cc1)C(=O)NO` [Compound 180], the MIC MH 6374 turned out to be 1.6 µg/mL (≈ 3.4 µM).
On the same count and under the same terms, in the case of `CC(C)([C@H](NC(=O)c1ccc(C#Cc2ccc(CNCc3ccco3)nc2)cc1)C(=O)NO)S(C)(=O)=O` [Compound 354] it was 0.8 µg/mL (≈ 1.52 µM); in that of `CC(C)(O)[C@H](NC(=O)c1ccc(C#Cc2ccc(CN3CCCC3)cc2)cc1)C(=O)NO` [Compound 225], 6.3 µg/mL (≈ 14.5 µM).

For another assay, the system named is Mannheimia haemolytica MH 6357 (M7/2, reference strain, cattle infection strain). In words: MIC, broth-microdilution (CLSI VET01-A4), strain MH 6357. In kind it is cell-based. The note with it: Mannheimia haemolytica strain MH 6357, broth-microdilution; unit assumed. In a few lines:
as §1
The molecule `C=CCNCc1ccc(C#Cc2ccc(C(=O)NC(C(=O)NO)C(C)(C)[N+](=O)[O-])cc2)cc1` (stereo not drawn) [Compound 280] had an MIC MH 6357 of 1.6 µg/mL (≈ 3.55 µM).
For the molecule `CC[C@H](C)[C@H](NC(=O)c1ccc(C#Cc2ccc(CNCc3ccccn3)cc2)cc1)C(=O)NO` [Compound 180], the MIC MH 6357 turned out to be 0.8 µg/mL (≈ 1.7 µM).
The same measure, in the same setting: for `CC(C)([C@H](NC(=O)c1ccc(C#Cc2ccc(CNCc3ccco3)nc2)cc1)C(=O)NO)S(C)(=O)=O` [Compound 354] the value was 0.4 µg/mL (≈ 0.762 µM); for `CC(C)(O)[C@H](NC(=O)c1ccc(C#Cc2ccc(CN3CCCC3)cc2)cc1)C(=O)NO` [Compound 225], 12.5 µg/mL (≈ 28.7 µM).
